Article PMC9738107, “Targeting of the ELR+CXCL/CXCR1/2 Pathway Is a Relevant Strategy for the Treatment of Paediatric Medulloblastomas” (Cells, 2022)

Assays:
Format in all cases: cell-based, human
D341Med cells = assay: XTT assay (cell metabolism/cytotoxicity); settings: for IC50: Homo sapiens, D341 Med
Excerpt: To evaluate the efficacy of this compound in MB cells, we first determined the relative IC50 values for each cell line using XTT assays (Figure 3A–E). The XTT assay is used to measure cellular metabolic activity (overall activity of mitochondrial dehydrogenases) as an indicator of cell viability, proliferation, and cytotoxicity. […] Overall, IC50 values for all cell lines were in the micromolar range, making C29 a very efficient agent to inhibit cell metabolism and viability.
Figure 3 A new pharmacological inhibitor of CXCR1/2, C29, inhibits the metabolism of MB cells. (A–D). Cytotoxic effect induced by C29 on Daoy (A), ONS-76 (B), HD-MB03 (C), and D341Med (D) cells. Cells were treated with increasing doses of the inhibitor for 24, 48, and 72 h. Cytotoxicity was measured using the XTT assay. Absorbance measurements were performed at […], n = 3. (E) Table with the different IC50 values for all conditions. (F) Cell death after 48 h of treatment with control (DMSO, CT) or C29 1, 2.5 or 5 µM treatment, on MB cells, and normal cells (N), n = 3. Statistics were performed using the one-way method ANOVA. ** p < 0.01, *** p < 0.001. For this figure, Daoy = Da, ONS-76 = O, HD-MB03 = HD, D341 = D3, C8D1A = C8. TEXT PRINTED IN THE PICTURE: (E) C29: IC50 (μM): 5.6 (Cell line: Daoy; 24h); IC50 (μM): 3 (Cell line: Daoy; 48h); IC50 (μM): 0.9 (Cell line: Daoy; 72h); IC50 (μM): 17.9 (Cell line: ONS-76; 24h); IC50 (μM): 6.8 (Cell line: ONS-76; 48h); IC50 (μM): 2.1 (Cell line: ONS-76; 72h); IC50 (μM): 2.6 (Cell line: HD-MB03; 24h); IC50 (μM): 1.8 (Cell line: HD-MB03; 48h); IC50 (μM): 1.3 (Cell line: HD-MB03; 72h); IC50 (μM): 7.5 (Cell line: D341Med; 24h); IC50 (μM): 4.9 (Cell line: D341Med; 48h); IC50 (μM): 4.6 (Cell line: D341Med; 72h)
centrations of C29 in 96‐well plates for 48h. 50μl/well of XTT solution (Cell Proliferation
kit II, Sigma‐Aldrich) were added to measure cell metabolism at 490 nm with GloMax‐ […]
30 μg of proteins were separated on 10% SDS‐polyacrylamide
gels and transferred on PVDF membranes in Tris‐Glycine buffer (25 mM Tris, 192 mM
glycine, pH 8∙3) + 20% ethanol (v:v). Membranes were blocked with 3% BSA, at room tem‐
perature for 1 h, then immunoblotted overnight with primary antibodies diluted in 3%
BSA, at 4 °C. The following primary antibodies were used: AKT (CST, #9272S), phospho‐
ARD1 (homemade polyclonal rabbit antibody). Membranes were incubated with HRP‐
conjugated secondary antibodies anti‐rabbit IgG 1/5000e (Promega), at room temperature,
for 1h30. After washing, the Advansta WesternBright Quantum HRP substrate (Diagom‐
ics, Blagnac, France) was used as detection reagent.

DR1 cells = assay: Cell death assay (PI staining), radiation-resistant cells; settings: DR1 compared to astrocytes
Protocol: (§1) As with naïve cells, we determined the IC50 for DR1, DR2, […] and their SI compared to astrocytes.
(§2) Figure 8 C29 is efficient on radioresistant MB cell lines. (A) Cell death after 48 h of treatment with control (DMSO, CT) or C29 1, 2.5, or 5 µM on radiation-resistant cells (RR) and normal cells (N), n = 3. Statistics were performed using the one-way method ANOVA. * p < 0.05, ** p < 0.01, *** p < 0.001. For this figure, DR1 = D1, DR2 = D2, HR1 = H1, HR2 = H2, and C8D1A = C8. (B) Proliferation of DR1/DR2 (A) and HR1/HR2 (B) radio-resistant cells after 1 µM C29 treatment or control (DMSO), n = 3. (C) Clonogenic assay on DR1, DR2 (n = 3) and HR1, HR2 (n = 3) cells after treatment with control (DMSO) or C29 (1 µM or 2.5 µM). (D) Cell migration through the Boyden chamber of DR1 and DR2 cells specifically attracted by 200 ng/mL CXCL8. Cells were treated with control (DMSO) or C29 (1 and 2.5 µM). Results are expressed as percentage of control (n = 3). Scale = 1000 μm. Statistics were performed using Student t-test for 2 comparisons only or ANOVA test for multiple comparisons. * p < 0.05, ** p < 0.01, *** p < 0.001. […]
(§3) each month by using PlasmoTest Kit (#10L07‐MM, InvivoGen, Toulouse, France). Daoy and ONS‐76 belong to the Shh genetic subgroup, D341‐Med and HD‐MB03 to group 3.
(§4) Mouse cerebellar astrocytes C8D1A (CRL ‐2541) were purchased from the American Tissue Culture Collection ATCC. These cells were cultured in DMEM (1X) + GlutaMAX (Invitrogen) medium supplemented with 10% FBS (D. Dutscher). Cells were cultured at 37°C in a 5% CO2 incubator. […]
(§5) After 2 days, cells were treated with control (DMSO) or C29
(§6) (1, 2∙5, 5μM) for 48 hours. After 48 hours, the medium was recovered, and the adherent cells were dissociated and added to the supernatant. Cell death was detected by PE chan‐ nel using FACS Cytoflex (Beckman) immediately after labelling the cells with 1ug/ml pro‐ pidium iodide (Miltenyi Biotec). Data were presented with the percentage of cell death after subtracting the percentage of untreated and unlabelled dead cells.
(§7) Migration in Boyden chambers
(§8) The cells were deprived of serum overnight. 50000 cells were plated in triplicate in serum‐free medium into the upper compartment of pre‐wetted inserts (24‐well plate fit, translucent PET membrane, 8∙0 μ m pore size, Falcon, Thermo Fisher). Medium containing 10% serum or CXCL8 (200ng/ml, Peprotech) was added to the lower compartment. After 24 hours, migrated cells were fixed with 3% paraformaldehyde and stained with Crystal […]
Violet. […]
(§9) 5000 cells were plated in 48 multi‐well plates coated with agarose 0∙8%. […]

HR2 cells = assay: as above; settings: HR2 compared to astrocytes
Protocol: as §1, §2, §3, §4, §5, §6, §7, §8
Violet. […]
as §9

DR2 cells = assay: as above; settings: DR2 compared to astrocytes
Protocol: as §1, §2, §3, §4, §5, §6, §7, §8
Violet. […]
as §9

HR1 cells = assay: as above; settings: HR1 compared to astrocytes
Protocol: as §1, §2, §3, §4, §5, §6, §7, §8
Violet. […]
as §9

O=C(Nc1cccc(Cl)c1)Nc1nc2ccc([N+](=O)[O-])cc2s1 [C29, 1-(3-chlorophenyl)-3-(6-nitrobenzo[d]thiazol-2-yl) urea]
Effect on cell metabolism at low concentrations (D341Med cells; D341Med, 72 h, 0.1 to 2.5 µM): stimulated metabolism | IC50 (D341Med cells; D341Med, 24 h): 7.5 µM | IC50 (D341Med cells; D341Med, 48 h): 4.9 µM | IC50 (D341Med cells; D341Med, 72 h): 4.6 µM | Selectivity index (SI) (D341Med cells; IC50 normal cells (C8D1A) / IC50 D341Med): 3.94 | Selectivity index (SI) (DR1 cells): 3.9 | Selectivity index (SI) (HR2 cells): 2.8 | Selectivity index (SI) (DR2 cells): 3.9 | Selectivity index (SI) (HR1 cells): 7.7
